Test results published in patent US20090143279A1 (priority 2007, published 2009).
Where a name gives a salt, the structure may show the parent alone. Read-outs that look alike come from different tables or passages of the source.

What was measured:
reactive oxygen species = assay type: cell-based, mouse; conditions: for ROS (composite Z-score): normalized score vs mock-treated (DMSO) wells
cytochrome c = assay type: cell-based, mouse; conditions: for cyt c (composite Z-score): normalized score vs mock-treated (DMSO) wells
C2C12 myotubes = conditions: for Viability (composite Z-score): normalized score vs mock-treated (DMSO) wells
OXPHOS gene expression = assay type: cell-based, mouse; conditions: for GE-HTS (composite Z-score): normalized score vs mock-treated (DMSO) wells
nuOXPHOS transcripts = assay type: cell-based, mouse; conditions: for nucOX (composite Z-score): normalized score vs mock-treated (DMSO) wells
[1] = tested on: mitochondrial membrane potential; assay type: cell-based, mouse; conditions: for ΔΨm (composite Z-score): normalized score vs mock-treated (DMSO) wells
mtOXPHOS transcripts = assay type: cell-based, mouse; conditions: for mitoOX (composite Z-score): normalized score vs mock-treated (DMSO) wells
[2] = tested on: cellular dehydrogenase activity; conditions: for MTT (composite Z-score): normalized score vs mock-treated (DMSO) wells
[3] = 20 μM, composite Z-score vs DMSO
[4] = Table 4, C2C12 myotubes, 48 h, composite Z-score
[5] = composite Z-score vs DMSO, Conc 20 μM
[6] = 20.6 μM, composite Z-score vs DMSO
[7] = normalized composite Z-score vs mock-treated (DMSO) wells, Conc 20 μM

Row | Compound | ROS (reactive oxygen species; [3]) | cyt c (cytochrome c; [3]) | Viability (C2C12 myotubes; [3]) | GE-HTS (OXPHOS gene expression; [3]) | nucOX (nuOXPHOS transcripts; [3]) | ΔΨm [1, 3] | mitoOX (mtOXPHOS transcripts; [3]) | MTT [2, 3] | ROS (reactive oxygen species; [5]) | cyt c (cytochrome c; [5]) | Viability (C2C12 myotubes; [5]) | GE-HTS (OXPHOS gene expression; [5]) | nucOX (nuOXPHOS transcripts; [5]) | ΔΨm [1, 5] | mitoOX (mtOXPHOS transcripts; [5]) | MTT [2, 5] | other results
1 | Oc1ncnc2[nH]ncc12 [allopurinol] | 1.448 | −0.105 | 0.376 | −0.869 | −0.849 | −0.204 | −0.798 | −1.611 | – | – | – | – | – | – | – | – | –
2 | N#CC(=Cc1cccc(O)c1)C(=O)O [alpha-cyano-3-hydroxycinnamic acid] | 0.452 | 0.349 | −0.861 | −0.747 | −0.903 | −0.165 | −0.285 | −0.323 | – | – | – | – | – | – | – | – | –
3 | CC(=O)Oc1c(C)c(C)c2c(c1C)CCC(C)(CCCC(C)CCCC(C)CCCC(C)C)O2 (stereo not drawn) [alpha-tochopheryl acetate] | 0.364 | 0.261 | −0.957 | 0.212 | 0.339 | −0.734 | −0.094 | −1.398 | – | – | – | – | – | – | – | – | –
4 | COc1cc2c(cc1OC)[C@@H]1C(=O)c3c(O)cc4c(c3O[C@@H]1CO2)C=CC(C)(C)O4 [alpha-toxicarol, reference compound] | – | – | – | – | – | – | – | – | 0.101 | −2.637 | 0.304 | −0.046 | 0.124 | 0.820 | −0.345 | −1.982 | ROS (reactive oxygen species; [4]): 0.101; Viability (C2C12 myotubes; [4]): 0.304; ΔΨm ([1]; Table 4, C2C12 myotubes, 48 h, JC-1, composite Z-score): 0.820; MTT [2, 4]: −1.982
5 | COc1cc(OC)c2c(c1)OC(c1ccccc1)CC2=O (stereo not drawn) [alpinetin methyl ether] | – | – | – | – | – | – | – | – | – | – | – | – | – | – | – | – | ROS (composite Z-score) (reactive oxygen species; Conc 20 μM): 0.827; cyt c (composite Z-score) (cytochrome c; Conc 20 μM): −0.145; Viability (composite Z-score) (C2C12 myotubes; Conc 20 μM): 0.220; GE-HTS (composite Z-score) (OXPHOS gene expression; Conc 20 μM): −0.565; nucOX (composite Z-score) (nuOXPHOS transcripts; Conc 20 μM): −0.437; ΔΨm (composite Z-score) ([1]; Conc 20 μM): −0.286; mitoOX (composite Z-score) (mtOXPHOS transcripts; Conc 20 μM): −0.717; MTT (composite Z-score) ([2]; Conc 20 μM): −0.694
6 | CN(C)c1nc(N(C)C)nc(N(C)C)n1 [altretamine] | 0.103 | −0.631 | −0.315 | 0.379 | 0.488 | −0.322 | 0.069 | −1.416 | – | – | – | – | – | – | – | – | ROS (reactive oxygen species): 0.462; cyt c (cytochrome c): 0.040; Viability (C2C12 myotubes): −0.533; GE-HTS (OXPHOS gene expression): 0.884; nucOX (nuOXPHOS transcripts): 0.750; ΔΨm [1]: −0.440; mitoOX (mtOXPHOS transcripts): 0.972; MTT [2]: −0.442
7 | CCN(CCCc1ccccc1)CCCc1ccccc1 [alverine citrate] | – | – | – | – | – | – | – | – | 1.116 | −0.433 | 0.885 | −0.238 | −0.098 | 0.433 | −0.442 | −0.018 | –
8 | NCC[C@H](O)C(=O)N[C@@H]1C[C@H](N)[C@@H](O[C@H]2O[C@H](CN)[C@@H](O)[C@H](O)[C@H]2O)[C@H](O)[C@H]1O[C@H]1O[C@H](CO)[C@@H](O)[C@H](N)[C@H]1O [amikacin] | – | – | – | – | – | – | – | – | 0.301 | −0.090 | 0.034 | 0.332 | 0.268 | −0.116 | 0.338 | −1.688 | –
9 | Nc1ccc(C(=O)NCC(=O)O)cc1 [aminohippuric acid] | −0.310 | 0.243 | 0.597 | 0.220 | 0.160 | −0.606 | 0.304 | −0.983 | – | – | – | – | – | – | – | – | ROS (reactive oxygen species; [6]): 0.426; cyt c (cytochrome c; [6]): 0.320; Viability (C2C12 myotubes; [6]): −0.266; GE-HTS (OXPHOS gene expression; [6]): 0.568; nucOX (nuOXPHOS transcripts; [6]): 0.976; ΔΨm [1, 6]: −0.343; mitoOX (mtOXPHOS transcripts; [6]): −0.395; MTT [2, 6]: −0.126
10 | Cc1ccc(/N=C/N(C)/C=N/c2ccc(C)cc2C)c(C)c1 [amitraz] | – | – | – | – | – | – | – | – | 0.867 | 0.292 | −1.025 | −0.526 | −0.299 | −0.741 | −0.814 | −1.572 | –
11 | CCN(CC)Cc1cc(Nc2ccnc3cc(Cl)ccc23)ccc1O [amodiaquine] | 0.877 | −0.008 | −0.547 | 0.398 | 0.317 | −1.178 | 0.481 | −1.008 | – | – | – | – | – | – | – | – | –
12 | N=c1ccn2c(n1)O[C@H]1[C@H](O)[C@@H](CO)O[C@H]12 [ancitabine] | – | – | – | – | – | – | – | – | – | – | – | – | – | – | – | – | ROS (composite Z-score) (reactive oxygen species; Conc 20 μM): −0.189; cyt c (composite Z-score) (cytochrome c; Conc 20 μM): −0.158; Viability (composite Z-score) (C2C12 myotubes; Conc 20 μM): −0.655; GE-HTS (composite Z-score) (OXPHOS gene expression; Conc 20 μM): −1.115; nucOX (composite Z-score) (nuOXPHOS transcripts; Conc 20 μM): −1.182; ΔΨm (composite Z-score) ([1]; Conc 20 μM): −0.986; mitoOX (composite Z-score) (mtOXPHOS transcripts; Conc 20 μM): −0.726; MTT (composite Z-score) ([2]; Conc 20 μM): −2.731
13 | C=C1CC[C@@H]2[C@](C)(CO)[C@H](O)CC[C@@]2(C)[C@@H]1C/C=C1/C(=O)OC[C@H]1O [andrographolide] | – | – | – | – | – | – | – | – | – | – | – | – | – | – | – | – | ROS (reactive oxygen species; [7]): −1.813; cyt c (cytochrome c; [7]): −0.044; Viability (C2C12 myotubes; [7]): −0.686; GE-HTS (OXPHOS gene expression; [7]): −1.323; nucOX (nuOXPHOS transcripts; [7]): −0.698; ΔΨm [1, 7]: −0.165; mitoOX (mtOXPHOS transcripts; [7]): −2.361; MTT [2, 7]: −0.901
14 | C[C@]12C=CC(=O)C=C1CC[C@@H]1[C@@H]2CC[C@]2(C)C(=O)CC[C@@H]12 [androsta-1,4-dien-3,17-dione] | – | – | – | – | – | – | – | – | 0.068 | 0.261 | 0.162 | −0.180 | −0.143 | 0.152 | −0.189 | −0.500 | –
